Test results as given in patent US20230192764A1, “NOVEL DOPAMINE PRECURSORS” (Yissum Research Development Company of the Hebrew …, priority 2018, published 2023).
Where “and” joins values, the source holds several entries; their conditions need not be identical. Equal entries are not always repeated.

Experiments:
[1] = system: human neuroblastoma cells (SH-SY5Y); experiment: Viability of SH-SY5Y cells after auranofin (AuF) challenge, methylene blue staining; format: cell-based; conditions: SH-SY5Y pre-treated with 5 µM AuF 30 min, washed, compound added, viability 24 h later
Description: Viability of cells pre-treated with 5 µM AuF for 30 min, washed and later exposed to increasing concentrations of SD-444, was determined 24 h later.
A) The anti-apoptotic activity of SD-444 was tested on human neuronal cells SH-SY5Y. The cells were challenged by auranofin (AuF) that induces cellular stress by selectively blocking the thioredoxin reductase activity.
SH-SY5Y cells were plated on 96-well plates and treated with AuF in different concentrations for 30 min. Then the cells were washed with PBS and treated as indicated. Twenty-four hours later, the cells were fixed with glutaraldehyde in final concentration of 0.5% for 10 min. Cells were washed 3 times with DDW dried overnight, and washed once with borate buffer (0.1 M, pH 8.5). The fixed cells were stained with 200 µl of 1% methylene blue dissolved in borate buffer for 1 h. After extensive washing and drying, the color was extracted with 200 µl of 0.1 M HCl for 1 h at 37° C. and absorbance was read in spectrophotometer at 630 nm.

[2] = system: Rotenone -induced model of Parkinson's disease (PD) in rats; experiment: Rat rearing behavior (cylinder) test, rotenone model; format: in vivo, Sprague Dawley rats; conditions: for Cylinder rise and touch (number of rears in 2 min): individual rat, listed as SD
Description: (§1) 1-SD (Rotenone + SD); 2 - SDA (Rotenone + SDA); 3 - Control (Rotenone); 4 -Naive. The experimental groups were comprised of 6 animals for treated groups (1-3) and 2 animals in naive group (4). Rotenone was administrated 3.0 mg/kg intraperitoneally (IP) once a day in the morning (days 1-9). SD 33 mg/kg and SDA 33 mg/kg were administrated intraperitoneally once a day in the afternoon (days 1-9).
(§2) Rearing behavior, rotarod and beam walk tests were performed before initiation of treatment (day 0) as well as on days 4, 8 and 10 of the experiment.
(§3) IP administration: Rotenone was administrated to groups 1-3. Rotenone was injected intraperitoneally at a dose 3.0 mg/kg once a day in the morning (days 1-9). SD and SDA was administrated both at a dose of 33 mg/kg and were injected intraperitoneally once a day in the afternoon (days 1-9). Group number 4 was untreated, and remained as a naive group.
Animals were placed in a clear glass cylinder (40 cm high and 20 cm diameter) and number of rears in 2 min was observed. Rear was considered as animals raised their hands above the shoulder and made contact with the wall of cylinder with their forelimb.

[3] = system: Rotenone -induced model of Parkinson's disease (PD) in rats; experiment: Rotarod behavior assay, rotenone model; format: in vivo, Sprague Dawley rats; conditions: for R.R (rotarod): individual rat, listed as SD
Description: as §1, §2, §3
The test was used to evaluate motor coordination and balance. Apparatus was set to accelerate from 4 to 40 rpm in 300 s, and animals from same cage are placed in separate lanes on rod initially rotating at 4 rpm.

[4] = system: Rotenone -induced model of Parkinson's disease (PD) in rats; experiment: Rat beam walk test, rotenone model; format: in vivo, Sprague Dawley rats; conditions: for beam end time: individual rat, listed as SD
Description: as §1, §2, §3
Animals were gently placed on 1 m long narrow aluminum beam facing one of the ends and allowed to walk to the end of the beam.

JNK phosphorylation = experiment: AuF-induced phosphorylation of JNK in SH-SY5Y cells, western blot; format: cell-based, human
Description: SH-SY5Y cells were treated with 10 µM AuF with or without SD-444. Phosphorylation was determined by western blot analysis. The amount of each band was quantitated by densitometry and plotted with a linear regression program normalized to total JNK.
(§4) In the assay, twenty to thirty micrograms of protein samples were loaded on 10-12% SDS-PAGE gels. The proteins were then transferred electrophoretically to nitrocellulose (Whatman, Germany). The blots were blocked by incubation for 1 h at RT in TBS-T (25 mM Tris-HCl pH 7.4, 0.9% NaCl and 0.02% Tween-20) with 4% Difco skim milk (BD, USA), and incubated over-night at 4° C. with the primary antibody: p-p38^MAPK (Thr180/Tyr182), rabbit mAb; p38, rabbit Ab.
as §4, with “1h” for “1 h”, “p-JNK^MAPK, and β-catenin.” for “p-p38^MAPK (Thr180/Tyr182), rabbit mAb; p38, rabbit Ab.”

[5] = Body weight monitoring in rotenone-treated rats; format: in vivo, Sprague Dawley rats; conditions: for Weight: individual rat, listed as SD
Description: as §1
Animals weight was measured before initiation of treatment (day 0), on days 4,7, 9 during the experiment and on termination day 11. On day 11, animals were sacrificed and brains were harvested for further histopathological analysis.
as §3

p38MAPK phosphorylation = experiment: AuF-induced phosphorylation of p38MAPK in SH-SY5Y cells, western blot; format: cell-based, human
Description: Cells were treated with 10 µM AuF with or without SD-444. Phosphorylation was determined by western blot analysis. The amount of each band was quantitated by densitometry and plotted with a linear regression program normalized with β catenin (b-cat).
as §4

[6] = average n=6, day 0 (before treatment)
[7] = day 0 (before treatment), rotenone 3 mg/kg + compound 33 mg/kg IP
[8] = rats, rotenone 3.0 mg/kg IP + compound 33 mg/kg IP, days 1-9

For `CC(=O)NC(CS)C(=O)NC(Cc1cccc(O)c1O)C(=O)NC(CS)C(N)=O` (stereo not shown) [SD-444, Acetyle-Cys-2,3 dihydroxyphenylalanin-Cys- amide], the “neuronal cell-viability after AuF” value [1] was “partially restored”, the “neuronal cell-viability after AuF” value ([1]; listed as SD) was “increase viability” and the “Cylinder rise and touch, group average” value [2, 6] was 12.33. The “Cylinder rise and touch, group average” value ([2]; average n=6, day 4) was 14.00, the “Cylinder rise and touch, group average” value ([2]; average n=6, day 8) was 12.33 and the “Cylinder rise and touch, group average” value ([2]; average n=6, day 10) was 13.00. For the same compound, the “Cylinder rise and touch (number of rears in 2 min)” value [2, 7] was 13 (3×) and 8 and 18 and 9, the “Cylinder rise and touch (number of rears in 2 min)” value ([2]; day 4) was 22 and 9 and 12 and 13 (2×) and 15 and the “Cylinder rise and touch (number of rears in 2 min)” value ([2]; day 8) was 9 and 10 (2×) and 18 and 15 and 12. For the same compound, the “Cylinder rise and touch (number of rears in 2 min)” value ([2]; day 10) was 16 and 13 and 17 and 9 and 15 and 8, the “Cylinder test, maintaining locomotor activity in Rotenone-treated rats” value [2, 8] was “very effective” and the “R.R (rotarod), group average” value [3, 6] was 283.33 s. The “R.R (rotarod), group average” value ([3]; average n=6, day 4) was 275.00 s, the “R.R (rotarod), group average” value ([3]; average n=6, day 8) was 256.67 s and the “R.R (rotarod), group average” value ([3]; average n=6, day 10) was 240.50 s. The “R.R (rotarod)” value [3, 7] was 274 s and 280 s and 288 s and 300 s and 291 s and 267 s, the “R.R (rotarod)” value ([3]; day 4) was 280 sec and 268 sec and 300 sec (2×) and 247 sec and 255 sec and the “R.R (rotarod)” value ([3]; day 8) was 249 s and 251 s and 282 s and 267 s and 254 s and 237 s. For the same compound, the “R.R (rotarod)” value ([3]; day 10) was 248 s and 255 s and 258 s and 266 s and 224 s and 192 s, the “rotarod test, motor dysregulation mediated by rotenone” value [3, 8] was “significantly reversed” and the “beam end time, group average” value [4, 6] was 11.33 s. The “beam end time, group average” value ([4]; average n=6, day 4) was 20.17 s, the “beam end time, group average” value ([4]; average n=6, day 8) was 22.00 s and the “beam end time, group average” value ([4]; average n=6, day 10) was 22.67 s. The beam end time [4, 7] was 10 sec (2×) and 19 sec and 5 sec and 8 sec and 16 sec, the beam end time ([4]; day 4) was 31 s and 13 s and 15 s and 6 s and 38 s and 18 s and the beam end time ([4]; day 8) was 23 s and 22 s and 18 s and 16 s and 21 s and 32 s. For the same compound, the beam end time ([4]; day 10) was 43 s and 23 s and 17 s and 12 s and 27 s and 14 s, the “Walk-beam test, reversal of rotenone induced imbalance” value [4, 8] was “very effective” and the “concentration at which significant reduction in JNK activation is seen” value (JNK phosphorylation; 10 µM AuF, western blot) was 10 µM. The “JNK phosphorylation (AuF-triggered)” value (JNK phosphorylation; summary statement) was “inhibit”, the “Weight, group average” value [5, 6] was 304.83 gr and the “Weight, group average” value ([5]; average n=6, day 4) was 299.83 gr. For the same compound, the “Weight, group average” value ([5]; average n=6, day 7) was 294.17 gr, the “Weight, group average” value ([5]; average n=6, day 9) was 290.17 gr and the “Weight, group average” value ([5]; average n=6, day 11) was 283.17 gr. The Weight [5, 7] was 300 gr (2×) and 307 gr and 294 gr and 315 gr and 313 gr, the Weight ([5]; day 4, rotenone 3 mg/kg + compound 33 mg/kg IP) was 299 gr (2×) and 296 gr and 290 gr and 310 gr and 305 gr and the Weight ([5]; day 7, rotenone 3 mg/kg + compound 33 mg/kg IP) was 298 gr and 281 gr and 286 gr and 305 gr and 294 gr and 301 gr. The Weight ([5]; day 9, rotenone 3 mg/kg + compound 33 mg/kg IP) was 295 gr and 285 gr and 280 gr and 298 gr and 286 gr and 297 gr, the Weight ([5]; day 11, rotenone 3 mg/kg + compound 33 mg/kg IP) was 290 gr (2×) and 278 gr and 284 gr and 283 gr and 274 gr and the “concentration at which significant reduction in p38 activation is seen” value (p38MAPK phosphorylation; 10 µM AuF, western blot) was 30 µM. For the same compound, the “p38 phosphorylation (AuF-triggered)” value (p38MAPK phosphorylation; summary statement) was “inhibit”.
